Assays:
[1] = system: Corn Earworm (Helicoverpa zea); assay: Insecticidal diet-surface test for corn earworm; format: in vivo; settings: second-instar corn earworm, 50 ug/cm2 on diet surface, 5 days after treatment, dead insects of 8
Method: (§1) The compounds identified in Table 1 were prepared using the procedures illustrated in the foregoing examples, and the compounds were tested against beet armyworm and corn earworm as follows:
(§2) Insecticidal Test for Corn Earworm (Helicoverpa zea) and Beet Armyworm (Spodoptera exigua).
(§3) To prepare test solution, the test compound was formulated at 2000 ppm solution as 4 mg/2 mL of 9 acetone:1 tap water. 50 μL of the 2000 ppm (equivalent to 50 ug/cm^2 dose on diet surface area) test solution was pipetted upon the surface of 1 mL of lepidopteran diet (Southland Multi-Species Lepidopteran Diet) contained in each of eight wells per insect species (one well=1 replication). A second-instar corn earworm and beet armyworm was placed upon the treated diet in each well once the solvent had air-dried. Trays containing the treated diet and larvae were covered and then held in a growth chamber at 25° C., 50-55% RH, and 16 hr light:8 hr dark for 5 days. Observation were conducted 5 days after treatment and infestation. The number of dead insects of 8 per species per treatment was then determined and the results are given in Table 1 as percent control at a dose of […].
(§4) Keys to the table: Mass spectral data were obtained using liquid chromatography mass spectroscopy (LC-MS). The masses are detected using electrospray ionization (ESI) and reported as Mol Ion (M+H, M−H); AVG LAPHEG 50 refers to activity against beet army worm (Spodoptera exigua) as defined above; AVG HELIZE 50 refers to activity against corn ear worm (Helicoverpa zea) as described above.

[2] = system: Beet Armyworm (Spodoptera exigua); assay: Insecticidal diet-surface test for beet armyworm; format: in vivo; settings: second-instar beet armyworm, 50 ug/cm2 on diet surface, 5 days after treatment, dead insects of 8
Method: as §1, §2, §3, §4

FC(F)(F)Oc1ccc(/C=N/Nc2nc(Nc3ccc(OC(F)(F)F)cc3)cc(C(F)(F)F)n2)cc1 [Compound 60]
HELIZE 50 (ug/cm2), percent control [1]: 100%
LAPHEG 50 (ug/cm2), percent control [2]: 100%

CN(/N=C/c1ccc(OC(F)(F)F)cc1)c1nc(Nc2ccc(OC(F)(F)F)cc2)cc(C(F)(F)F)n1 [Compound 61]
HELIZE 50 (ug/cm2), percent control [1]: 88%
LAPHEG 50 (ug/cm2), percent control [2]: 88%

Fc1ccc(Nc2cc(N3CCOCC3)nc(N/N=C/c3ccc(OC(F)(F)F)cc3)n2)cc1C(F)(F)F [Compound 62]
HELIZE 50 (ug/cm2), percent control [1]: 100%
LAPHEG 50 (ug/cm2), percent control [2]: 100%

Fc1ccc(Nc2cc(OCC(F)(F)F)nc(N/N=C/c3ccc(OC(F)(F)F)cc3)n2)cc1C(F)(F)F [Compound 63]
HELIZE 50 (ug/cm2), percent control [1]: 100%
LAPHEG 50 (ug/cm2), percent control [2]: 100%

COCCNc1cc(Nc2ccc(F)c(C(F)(F)F)c2)nc(N/N=C/c2ccc(OC(F)(F)F)cc2)n1 [Compound 64]
HELIZE 50 (ug/cm2), percent control [1]: 100%
LAPHEG 50 (ug/cm2), percent control [2]: 100%

CCNCCNc1cc(Nc2ccc(F)c(C(F)(F)F)c2)nc(N/N=C/c2ccc(OC(F)(F)F)cc2)n1 [Compound 65]
HELIZE 50 (ug/cm2), percent control [1]: 100%
LAPHEG 50 (ug/cm2), percent control [2]: 100%

Fc1ccc(Nc2cc(Cl)nc(N/N=C/c3ccc(Br)nc3)n2)cc1C(F)(F)F [Compound 66]
HELIZE 50 (ug/cm2), percent control [1]: 75%
LAPHEG 50 (ug/cm2), percent control [2]: 100%

CCOc1ccc(/C=N/Nc2nc(Cl)cc(Nc3ccc(F)c(C(F)(F)F)c3)n2)cn1 [Compound 67]
HELIZE 50 (ug/cm2), percent control [1]: 100%
LAPHEG 50 (ug/cm2), percent control [2]: 100%

Fc1ccc(Nc2cc(Cl)nc(N/N=C/c3ccc(C(F)(F)F)nc3)n2)cc1C(F)(F)F [Compound 68]
HELIZE 50 (ug/cm2), percent control [1]: 100%
LAPHEG 50 (ug/cm2), percent control [2]: 100%

FC(F)C(F)(F)Oc1cccc(Nc2cc(Cl)nc(N/N=C/c3ccc(C(F)(F)F)nc3)n2)c1 [Compound 69]
HELIZE 50 (ug/cm2), percent control [1]: 0%
LAPHEG 50 (ug/cm2), percent control [2]: 75%

Fc1ccc(Nc2cc(Cl)nc(N/N=C/c3ccc(OCC(F)(F)F)nc3)n2)cc1C(F)(F)F [Compound 70]
HELIZE 50 (ug/cm2), percent control [1]: 100%
LAPHEG 50 (ug/cm2), percent control [2]: 100%

FC(F)(F)COc1ccc(/C=N/Nc2nc(Cl)cc(Nc3cccc(Cl)c3)n2)cn1 [Compound 71]
HELIZE 50 (ug/cm2), percent control [1]: 100%
LAPHEG 50 (ug/cm2), percent control [2]: 100%

Fc1ccc(Nc2cc(C(F)(F)F)nc(N/N=C/c3ccc(C(F)(F)F)nc3)n2)cc1C(F)(F)F [Compound 72]
HELIZE 50 (ug/cm2), percent control [1]: 100%
LAPHEG 50 (ug/cm2), percent control [2]: 100%

FC(F)(F)Oc1ccc(/C=N/Nc2ccnc(Nc3ccc(OC(F)(F)F)cc3)n2)cc1 [Compound 73]
HELIZE 50 (ug/cm2), percent control [1]: 100%
LAPHEG 50 (ug/cm2), percent control [2]: 100%

FC(F)(F)Oc1ccc(Nc2nccc(N/N=C/c3ccc(C(F)(F)F)cc3)n2)cc1 [Compound 74]
HELIZE 50 (ug/cm2), percent control [1]: 100%
LAPHEG 50 (ug/cm2), percent control [2]: 100%

Fc1ccc(Nc2nc(Cl)cc(N/N=C/c3ccc(OC(F)(F)F)cc3)n2)cc1C(F)(F)F [Compound 75]
HELIZE 50 (ug/cm2), percent control [1]: 100%
LAPHEG 50 (ug/cm2), percent control [2]: 100%

Fc1ccc(Nc2nc(Cl)cc(N/N=C/c3ccc(OC(F)(F)C(F)F)cc3)n2)cc1C(F)(F)F [Compound 76]
HELIZE 50 (ug/cm2), percent control [1]: 25%
LAPHEG 50 (ug/cm2), percent control [2]: 38%

Fc1ccc(Nc2nccc(N/N=C/c3ccc(OC(F)(F)C(F)F)cc3)n2)cc1C(F)(F)F [Compound 77]
HELIZE 50 (ug/cm2), percent control [1]: 100%
LAPHEG 50 (ug/cm2), percent control [2]: 100%

Fc1ccc(Nc2ncc(F)c(NN=Cc3ccc(OC(F)(F)F)cc3)n2)cc1C(F)(F)F [Compound 78]
HELIZE 50 (ug/cm2), percent control [1]: 100%
LAPHEG 50 (ug/cm2), percent control [2]: 100%

Fc1cnc(Nc2cccc(C(F)(F)F)c2)nc1NN=Cc1ccc(OC(F)(F)F)cc1 [Compound 79]
HELIZE 50 (ug/cm2), percent control [1]: 100%
LAPHEG 50 (ug/cm2), percent control [2]: 100%

Fc1ccc(Nc2ccnc(N/N=C/c3ccc(OC(F)(F)F)cc3)n2)cc1C(F)(F)F [Compound 80]
HELIZE 50 (ug/cm2), percent control [1]: 100%
LAPHEG 50 (ug/cm2), percent control [2]: 100%

Fc1ccc(Nc2cc(N/N=C/c3ccc(OC(F)(F)C(F)F)cc3)nc(NCc3ccc(Cl)nc3)n2)cc1C(F)(F)F [Compound 81]
HELIZE 50 (ug/cm2), percent control [1]: 100%
LAPHEG 50 (ug/cm2), percent control [2]: 0%

Fc1ccc(Nc2nc(Cl)nc(N/N=C/c3ccc(OC(F)(F)F)nc3)c2Cl)cc1C(F)(F)F [Compound 82]
HELIZE 50 (ug/cm2), percent control [1]: 100%
LAPHEG 50 (ug/cm2), percent control [2]: 100%

FC(F)(F)Oc1ccc(/C=N/Nc2cc(Nc3cc(Cl)cc(C(F)(F)F)c3)nc(Cl)n2)cc1 [Compound 83]
HELIZE 50 (ug/cm2), percent control [1]: 100%
LAPHEG 50 (ug/cm2), percent control [2]: 100%

FC(F)C(F)(F)Oc1ccc(/C=N/Nc2cc(Nc3cc(Cl)cc(C(F)(F)F)c3)nc(Cl)n2)cc1 [Compound 84]
HELIZE 50 (ug/cm2), percent control [1]: 100%
LAPHEG 50 (ug/cm2), percent control [2]: 100%

Fc1ccc(Nc2cc(NN=Cc3ccc(OC(F)(F)F)cc3)ncn2)cc1C(F)(F)F [Compound 85]
HELIZE 50 (ug/cm2), percent control [1]: 100%
LAPHEG 50 (ug/cm2), percent control [2]: 100%

Fc1ccc(Nc2cc(N/N=C/c3ccc(C(F)(F)F)nc3)ncn2)cc1C(F)(F)F [Compound 86]
HELIZE 50 (ug/cm2), percent control [1]: 100%
LAPHEG 50 (ug/cm2), percent control [2]: 100%
